Measured values as given in patent publication US8778897B2, “Method of treatment using α-1-adrenergic agonist compounds” (The Regents of the University of California, priority 2008, dated 2014).

How the values were obtained:
[1] = system: α1A-AR; conditions: α1A-AR knock-out mice, infusion; cited from earlier work
[2] = system: wild type male C57BI6J mice; experiment: Doxorubicin-induced cardiomyopathy in wild type mice; assay type: in vivo; conditions: single doxorubicin 25 mg/kg i.p., A61603 10 ng/kg/day or vehicle infused over 7 days; for Fibrosis area (%): Sirius red; for Fibrosis area (%) / TUNEL-positive / ECHO FS (%) / Serum CK (U/L): mean ± SE; for TUNEL-positive: apoptosis; for Survival 7 days (%): untreated 100
Method: (§1) The alpha-1-adrenergic receptor agonist, A61603, was administered to 11 week-old wild type male C57BI6J mice using an osmotic minipump. Cardiomyopathy was induced with a single dose of doxorubicin (25 mg/kg) administered intraperitoneally. Blood pressure was measured by tail cuff, activated (phosphorylated) P-ERK by immunoblot, heart mRNA by RT-qPCR, fractional shortening (FS) by echocardiography (ECHO), myocyte necrosis by serum creatine kinase (CK), apoptosis by TUNEL stain, and fibrosis by Sirius red stain.
A61603 at the non-hypertensive dose of 10 ng/kg/day or vehicle was infused over 7 days after a single injection of doxorubicin.

[3] = system: alpha-1A adrenergic receptor; experiment: Doxorubicin-induced cardiomyopathy in alpha-1A-subtype knock-out mice; assay type: in vivo
[4] = system: α1A receptors; conditions: cited from earlier work
[5] = biological target: T1, α1A receptor (Mus musculus, UniProt P97718); conditions: wild-type mice, infusion; cited from earlier work
T1 construct: host or cells: wild-type mice (whole animal, endogenous receptor)
T1 sequence (P97718 1-466): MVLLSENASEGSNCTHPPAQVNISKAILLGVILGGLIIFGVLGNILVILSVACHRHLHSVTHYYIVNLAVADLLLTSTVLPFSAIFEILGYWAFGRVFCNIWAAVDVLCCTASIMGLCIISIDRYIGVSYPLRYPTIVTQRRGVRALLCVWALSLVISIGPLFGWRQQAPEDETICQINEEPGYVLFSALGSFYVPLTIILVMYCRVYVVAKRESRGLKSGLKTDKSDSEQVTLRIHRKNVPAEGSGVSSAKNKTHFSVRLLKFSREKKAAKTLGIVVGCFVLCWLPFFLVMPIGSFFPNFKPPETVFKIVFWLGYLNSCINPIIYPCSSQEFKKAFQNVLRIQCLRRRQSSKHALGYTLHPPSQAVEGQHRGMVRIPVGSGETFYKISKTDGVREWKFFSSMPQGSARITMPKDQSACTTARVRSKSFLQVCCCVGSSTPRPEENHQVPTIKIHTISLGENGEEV

[6] = Dose finding study, daily tail cuff blood pressure in mice; assay type: in vivo
Method: as §1
In a dose finding study, (0.01-100 μg/kg/day),
A61603 at 10 ng/kg/day over 7 days had no effect on daily tail cuff blood pressure, as evidenced by the average blood pressure of the control, vehicle treated mice of 115±4 mmHg and the average blood pressure of the mice treated with A61603 of 119±4 mmHg.

| Structure (SMILES) | effect on mean arterial pressure [1] | Fibrosis area (%) [2] [%] | TUNEL-positive [2] | ECHO FS (%) [2] [%] | Serum CK (U/L) [2] [U/L] | Survival 7 days (%) [2] [%] | benefit of A61603 against doxorubicin cardiomyopathy ([3]; data not shown) | potency at α1A receptors relative to α1B or α1D sites [4] | potency as α1A AR agonist compared with phenylephrine ([4]; versus non-selective α1 AR agonist phenylephrine) | EC50 for increase of mean arterial pressure [5] [µg/kg] | increased mean arterial pressure (MAP) [5] [mm Hg] | increased mean arterial pressure (MAP) over basal [5] [%] | effect on daily tail cuff blood pressure ([6]; 10 ng/kg/day over 7 days) | average blood pressure ([6]; 10 ng/kg/day over 7 days, osmotic minipump, tail cuff, vehicle control 115±4 mmHg) [mmHg] | effect on blood pressure at higher doses ([6]; doses higher than 10 ng/kg/day (range 0.01-100 μg/kg/day)) | apoptosis and mortality compared with wild-type mice ([3]; doxorubicin) |
| --- | --- | --- | --- | --- | --- | --- | --- | --- | --- | --- | --- | --- | --- | --- | --- | --- |
| Br.CS(=O)(=O)Nc1c(O)ccc2c1CCCC2C1=NCCN1 (stereo not drawn) [A61603, N-[5-(4,5-Dihydro-1H-imidazol-2-yl)-2-hydroxy-5,6,7,8-tetrahydronaphthalen-1-yl]methanesulfonamide hydrobromide] | no effect | 25 ± 1 | 0.5 ± 0.1 | 67 ± 1 | 571 ± 67 | 100 | no beneficial result | at least 35 fold | more potent | 0.3 | 35 | 25 | no effect | 119±4 | increased blood pressure |  |
| COc1cccc2c1C(=O)c1c(O)c3c(c(O)c1C2=O)C[C@@](O)(C(=O)CO)C[C@@H]3O[C@H]1C[C@H](N)[C@H](O)[C@H](C)O1 [Doxorubicin, doxorubicin, reference compound] |  | 32 ± 1 | 1.3 ± 0.2 | 55 ± 3 | 1204 ± 98 | 60 |  |  |  |  |  |  |  |  |  | increased apoptosis and mortality |
